Literature values, collected in patent US20110110985A1, “FUNCTIONALIZED NANOMATERIALS FOR CHELATION THERAPIES AND SORBENT DIALYSIS OF TOXINS” (priority 2009, published 2011).

Experiments:
[1] = day of chelation vs one and two days prior to treatment
[2] = given in the first 24 hours
[3] = given orally to rats

Compound: O=C(O)CN(CCN(CC(=O)O)CC(=O)O)CC(=O)O [EDTA, ethylenediamine-tetraacetate]
- increase of urinary excretion of Ca [1]: 2 fold
- increase of urinary excretion of Zn [1]: 18 fold

Compound: O=C(O)CN(CCN(CC(=O)O)CC(=O)O)CCN(CC(=O)O)CC(=O)O [Ca-DTPA, diethylenetriaminepentaacetic acid]
- effectiveness relative to Zn-DTPA [2]: 10 fold

Compound: O=C(O)[C@@H](S)[C@@H](S)C(=O)O [DMSA, meso-2,3-dimercaptosuccinic acid]
- change of Ca and Zn in carcass, Fe and Cu in liver, kidney, or brain [3]: did not significantly change
